Experimental data as given in patent US9655967B2, “Inhibition of focal adhesion kinase for control of scar tissue formation” (The Board of Trustees of the Leland Stanford Junior …, priority 2011, dated 2017).

Tests used:
[1] = test system: cutaneous wounds in the HTS model; experiment: Murine HTS model with daily intradermal injections; type: in vivo
Method: Murine HTS model. We used a murine HTS model as previously published by our group, Aarabi, et al., supra.
Microscopy and immunohistochemistry. We incubated paraformaldehyde-fixed cells with primary antibody (pFAK-Y397 or FAK 1:200, BD Biosciences, San Jose, Calif.) followed by AlexaFluor488-conjugated secondary antibody (Molecular Probes/Invitrogen). We performed cytoskeletal staining with phalloidin-AF488 or Cy3-conjugated antibody against α-SMA (Sigma-Aldrich). We performed H&E, picrosirius red and trichrome staining (Sigma-Aldrich) on paraffin-embedded sections. We used primary antibodies against FAK, MCP-1, F4/80, Ki67, and α-SMA. Immunostaining was developed with VIP, NovaRed or diaminobenzidine (Vector Laboratories, Burlingame, Calif.), or secondary fluorescent antibodies AF488 or AF594. We performed apoptotic staining using the In Situ Cell Death Detection Kit (Roche). We purchased all antibodies from Abcam Inc. (Cambridge, Mass.) unless otherwise noted. We processed images for publication using Adobe Photoshop CS3 (Adobe Systems Incorporated, San Jose, Calif.) and two blinded investigators performed image quantification using ImageJ (NIH, Bethesda, Md.).
Gene expression. We performed qPCR as previously published. We used Taqman Gene Expression Assays (Applied Biosystems, Foster City, Calif.) for in vitro qPCR.
Immunoblotting. We performed immunoblotting as previously described. We used the following antibodies: FAK (BD Biosciences), p-FAK Y397, p-FAK S732, p-ERK T202/Y204 and ERK, p-Akt S473 and Akt (Cell Signaling Technology, Inc., Danvers, Mass.), p-p38 Y182 and p38, p-JNK T183/Y185 and JNK, MCP-1 and β-actin. We obtained all antibodies from Abcam Inc. unless otherwise noted.
Intradermal injections. We administered intradermal injections (300 μL) of DMSO, 15 μM PF573228, or 150 μM PF573228 to unwounded murine skin or unloaded incisions. For HTS model experiments, we injected 15 μM PF573228 or recombinant mouse Mcp-1 (1 μg mL^−1, R&D Systems Inc.) daily between days 4 and 14 post-injury.

human fibroblasts [2] = experiment: Focal adhesion formation and spreading in human fibroblasts; type: cell-based; conditions: PF573228 treatment
Description: To substantiate the importance of these findings in human tissues, we examined FAK pathways in vitro in human fibroblasts. Following the application of strain, FAK was activated within five minutes and sustained during the static strain period (FIG. 3a-b). ERK was phosphorylated after ten minutes and its activation was critically dependent on FAK, thus recapitulating the FAK-ERK mechanotransduction axis observed in vivo. Small molecule inhibition of FAK (PF573228) was used to investigate mechanically-regulated fibroblast function during wound repair. […] Additionally, cell motility (FIG. 3c) and contraction/α-SMA expression (FIG. 3d-e) were all decreased with FAK inhibition.
Fibroblast harvest. We isolated primary dermal mouse fibroblasts after overnight incubation in trypsin (Gibco/Invitrogen, Carlsbad, Calif.) followed by 1 mg mL^−1 Liberase TL (Roche, Indianapolis, Ind.). We obtained human fibroblasts from fresh tissue specimens following IRB-approved protocols at Oregon Health and Sciences University. We incubated specimens overnight in 5 mg mL^−1 dispase (Roche) followed by 0.5 mg mL^−1 collagenase type I (Roche) and 0.2 mg mL^−1 trypsin. […]
Microscopy and immunohistochemistry. […] We processed images for publication using Adobe Photoshop CS3 (Adobe Systems Incorporated, San Jose, Calif.) and two blinded investigators performed image quantification using ImageJ (NIH, Bethesda, Md.).

human fibroblasts [3] = experiment: Scratch migration assay (fibroblast motility); type: cell-based; conditions: FIG. 3c
Method: (§1) Fibroblast harvest. We isolated primary dermal mouse fibroblasts after overnight incubation in trypsin (Gibco/Invitrogen, Carlsbad, Calif.) followed by 1 mg mL^−1 Liberase TL (Roche, Indianapolis, Ind.). We obtained human fibroblasts from fresh tissue specimens following IRB-approved protocols at Oregon Health and Sciences University. We incubated specimens overnight in 5 mg mL^−1 dispase (Roche) followed by 0.5 mg mL^−1 collagenase type I (Roche) and 0.2 mg mL^−1 trypsin. We used human cells from passages four to eight.
In vitro wound healing. We assessed fibroblast motility using a scratch migration assay, Aarabi, et al. FASEB J 21, 3250-3261 (2007).

human fibroblasts [4] = experiment: Fibroblast-populated 3D-collagen lattices (contraction, α-SMA expression); type: cell-based; conditions: FIG. 3d-e
Method: as §1
Fibroblast-populated collagen lattices. We performed fibroblast contraction studies as previously published, Ehrlich, Methods Mol Med 78, 277-291 (2003).
Microscopy and immunohistochemistry. We incubated paraformaldehyde-fixed cells with primary antibody (pFAK-Y397 or FAK 1:200, BD Biosciences, San Jose, Calif.) followed by AlexaFluor488-conjugated secondary antibody (Molecular Probes/Invitrogen). We performed cytoskeletal staining with phalloidin-AF488 or Cy3-conjugated antibody against α-SMA (Sigma-Aldrich). We performed H&E, picrosirius red and trichrome staining (Sigma-Aldrich) on paraffin-embedded sections. […] We processed images for publication using Adobe Photoshop CS3 (Adobe Systems Incorporated, San Jose, Calif.) and two blinded investigators performed image quantification using ImageJ (NIH, Bethesda, Md.).

Row | Compound | fibrotic phenotype in FAK-deficient wounds ([1]; FAK KO mice, intradermal Mcp-1 1 μg mL^−1 daily, FIG. 2c-f) | formation of focal adhesions (human fibroblasts [2]) | spreading in human fibroblasts (human fibroblasts [2]) | cell motility (human fibroblasts [3]) | contraction/α-SMA expression (human fibroblasts [4]) | scar formation in vivo ([1]; 15 μM PF573228 intradermal daily, days 4 to 14 post-injury, FIG. 4a) | MCP-1-associated pathways ([1]; HTS model scars) | mechanical activation of ERK ([1]; HTS model scars) | scar matrix density ([1]; post-injury day ten scars) | attenuation of epithelial proliferation ([1]; post-injury day ten scars, p<0.001) | attenuation of epithelial thickness ([1]; post-injury day ten scars, p=0.004) | attenuation of dermal proliferation ([1]; post-injury day ten scars, p=0.01)
1 | Mcp-1: recombinant mouse Mcp-1 (monocyte chemoattractant protein-1/CCL2), R&D Systems Inc. | restored the fibrotic phenotype | – | – | – | – | – | – | – | – | – | – | –
2 | CS(=O)(=O)c1cccc(CNc2nc(Nc3ccc4c(c3)CCC(=O)N4)ncc2C(F)(F)F)c1 [PF573228] | – | effectively inhibited | impaired | decreased | decreased | significantly reduced | blocked | significantly decreased | attenuated | 57% | 35% | 28%
